Assay results as given in article PMC3820767, “Turning Defense into Offense: Defensin Mimetics as Novel Antibiotics Targeting Lipid II” (PLoS Pathogens, 2013).
Where two headings read alike, the source gives them in different places.

Columns and labels:
Caco-2 = test: Cytotoxicity by MTT assay; assay type: cell-based, human
[1] = Surface Plasmon Resonance binding to immobilized 3-Lipid II; conditions: SPR; for Binding on Lipid II?: Table S3, initial determination at 10 µM
Procedure: Surface Plasmon Resonance binding experiments were carried out on a BIAcore T100 system (BIAcore Inc., Piscataway, NY) at 25°C. The assay buffer was 10 mM HEPES, 150 mM NaCl, 0.05% surfactant P20, pH 7.4 (±3 mM EDTA) supplemented with 10% DMSO. […] For initial determination of binding, defensin mimetics were introduced into the flow-cells (30 µl/min) in the running buffer at 10 µM. Resonance signals were corrected for nonspecific binding by subtracting the background of the control flow-cell. After each analysis, the sensor chip surfaces were regenerated with 50 mM NaOH for 30 s at a flow rate 100 µl/min, and equilibrated with the buffer prior to next injection. For binding kinetics studies, binding isotherms were analyzed with manufacturer-supplied software for BIAcore T100.

[2] = test system: Escherichia coli ATCC 25922; test: Antibacterial killing, 96-well turbidimetric (modified vCC) assay; assay type: cell-based; conditions: Table S3; concentration at which 100% killing occurred, no bacterial regrowth; No = not active
Procedure: (§1) The antibacterial activity of defensin mimetics against Staphylococcus aureus ATCC 29213 and Escherichia coli 25922 was carried out in a 96-well turbidimetric assay essentially as described previously with the following modifications: bacteria were exposed for 30 min to compounds in 10 mM phosphate buffer containing 5% DMSO prior to addition of 2× Muller-Hinton medium. Bacterial growth was monitored for 12 hours and data were analyzed as described. Determination of MICs was performed by Micromyx, LLC (Kalamazoo, Michigan) according to CLSI standards.

[3] = test system: Staphylococcus aureus ATCC 29213; test: as above; assay type: cell-based; conditions: Table S3; concentration at which 100% killing occurred, no bacterial regrowth; No = not active
Procedure: as §1

Compound | cytotoxic for Caco II (C50% survival) (Caco-2) | Binding on Lipid II? [1] | active against E.coli (IC100%) [2] | active against S.aureus (IC100%) [3] | IC50 (Caco-2) | cytotoxic for Caco II (C50% survival) (Caco-2; Table S3, No = not cytotoxic) | IC50 (Caco-2; Table S3, No = not cytotoxic, read-out: cytotoxic for Caco II (C50% survival)) | binding to Lipid II compared to wild-type HNP-1 ([1]; 10 µM peptide, 40 RUs 3-Lipid II)
Cc1cc2ccccc2n1C=CC1=[N+](C)c2ccccc2C1(C)C [4431/1, 1,3,3-trimethyl-2-(2-(2-methyl-1H-indol-1-yl)vinyl)-3H-1λ5-indole] | No | No | No | 250 µM |  |  |  | 
CN(C)c1ccc(C(c2ccc(N(C)C)cc2)C(O)c2ccccc2)cc1 (stereo not drawn) [35487/2, 2,2-bis(4-(dimethylamino)phenyl)-1-phenylethanol] | No | No | No | No |  |  |  | 
CN(C)c1ccc(C2C=C(c3ccccc3)Oc3ccccc32)cc1 (stereo not drawn) [55870/1, N,N-dimethyl-4-(2-phenyl-4H-chromen-4-yl)aniline] |  | Yes | No | 250 µM | 25.9 µM |  |  | 
CCN1C(=CC(C)=Cc2sc3ccccc3[n+]2CC)Sc2ccccc21 [96932/4, 3-ethyl-2-(3-(3-ethyl-1,3-benzothiazol-2(3H)-ylidene)-2-methyl-1-propenyl)-1,3λ5-benzothiazole] |  | No | 15.625 µM | 15,6 µM | 19 µM |  |  | 
OC(c1cccc2ccccc12)c1c2ccccc2cc2ccccc12 (stereo not drawn) [179415/1, 9-anthryl(1-naphthyl)methanol] |  | Yes | No | 3,9 µM |  | No |  | 
CCN1C(=CC(C)=Cc2sc3ccc4ccccc4c3[n+]2CC)Sc2ccc3ccccc3c21 [290437/2, 1-ethyl-2-(3-(1-ethylnaphtho[1,2-d][1,3]thiazol-2(1H)-ylidene)-2-methyl-1-propenyl)-1λ5-naphtho[1,2-d][1,3]thiazole] |  | No |  |  | 2.2 µM |  |  | 
Cc1cc(C2c3ccccc3-c3ccccc32)cc(C)c1O [610995/1, 4-(9H-fluoren-9-yl)-2,6-dimethylphenol] |  | Yes | No | 125 µM | 9.2 µM |  |  | 
OCC(CO)C1c2cccc3ccc4cccc1c4c23 [625586/1, 2-(4H-cyclopenta[def]phenanthren-4-yl)-1,3-propanediol] |  | No | No | No | 83.8 µM |  |  | 
COc1ccc(C=C[c+]2cc(-c3ccccc3)cc(-c3ccccc3)o2)cc1 [BAS00138032, 2-[2-(4-Methoxy-phenyl)-vinyl]-4,6-diphenyl-pyranylium] | No | No | No | No |  |  |  | 
CC(C)(C)c1csc(N2N=C(c3ccccc3)C(=NNc3ccccc3)C2=O)n1 [BAS00691248, 2-(4-tert-Butyl-thiazol-2-yl)-5-phenyl-4-(phenyl-hydrazono)-2,4-dihydro-pyrazol-3-one] | No | No | No | No |  |  |  | 
CCN(CC)CCCN1CN(CCCN(CC)CC)CN(CCCN(CC)CC)C1 [Compound 000A-0859, (3-{3,5-bis[3-(diethylamino)propyl]-1,3,5-triazinan-1-yl}propyl)diethylamine] |  | Yes | 500 µM | 500 µM | 419 µM |  |  | 
OCCSc1c(F)c(SCCO)c(SCCO)c(F)c1SCCO [Compound 0438-0367, 2-({2,5-difluoro-3,4,6-tris[(2-hydroxyethyl)sulfanyl]phenyl}sulfanyl)ethan-1-ol] | No | No | No | No |  |  |  | 
c1ccc(-c2nc(N(c3ccccc3)c3ccccc3)s[n+]2-c2ccccc2)cc1 [Compound 1492-0330, 5-(diphenylamino)-2,3-diphenyl-1,2$l^5,4-thiadiazol-2-ylium] |  | Yes |  |  |  |  |  | 
CN1/C(=C/C=C2/SC(=S)N(c3ccccc3)C2=O)C(C)(C)c2ccccc21 [Compound 2101-0102, (5E)-3-phenyl-2-sulfanylidene-5-{2-[(2E)-1,3,3-trimethyl-2,3-dihydro-1H-indol-2-ylidene]ethylidene}-1,3-thiazolidin-4-one] | No |  |  | No |  |  |  | 
Cc1cc2c(cc1C)CSC(c1ccc(O)cc1)SC2 [Compound 2729-1114, 4-(7,8-dimethyl-3,5-dihydro-1H-2,4-benzodithiepin-3-yl)phenol] |  | No | No | No |  |  | 119 µM | 
CN(C)c1ccc(C=C2C=C(c3ccccc3)OC(c3ccccc3)=C2)cc1 [Compound 3377-0105, 4-[(2,6-diphenyl-4H-pyran-4-ylidene)methyl]-N,N-dimethylaniline] |  | No | No | 500 µM | 100 µM |  |  | 
CCC[N+](CC#CCO)(CC#Cc1ccccc1)CCC [Compound 4636-0141, (4-hydroxybut-2-yn-1-yl)(3-phenylprop-2-yn-1-yl)dipropylazanium] | No | No | No | No |  |  |  | 
CCN1C(=O)C(c2ccc(O)cc2)(c2ccc(O)cc2)c2ccccc21 [Compound 4896-3423, 1-ethyl-3,3-bis(4-hydroxyphenyl)-2,3-dihydro-1H-indol-2-one] |  |  |  | No | 72.1 µM |  |  | 
Fc1ccccc1CN1CCC(N2CCN(c3ccccc3)CC2)CC1 [Compound 5607-0206, 1-{1-[(2-fluorophenyl)methyl]piperidin-4-yl}-4-phenylpiperazine] |  | No | No | No |  | No |  | 
O=Cc1ccc2c(c1)C1c3ccccc3C2c2ccccc21 [Compound 5100004, pentacyclo[6.6.6.0^{2,7}.0^{9,14}.0^{15,20}]icosa-2,4,6,9,11,13,15,17,19-nonaene-4-carbaldehyde] | No | No | No | No |  |  |  | 
OCc1ccc2c(c1)C1c3ccccc3C2c2ccccc21 [Compound 5100015, pentacyclo[6.6.6.0~2,7~.0~9,14~.0~15,20~]icosa-2,4,6,9,11,13,15,17,19-nonaen-4-ylmethanol] |  | No | No | 500 µM | 68 µM |  |  | 
CC[n+]1c(/C=C/C=C2C=C(/C=C/N(C(C)=O)c3ccccc3)CC(C)(C)C/2)sc2ccccc21.[I-] [Compound 5119716, 2-[(1E)-3-[(1E)-5,5-dimethyl-3-[(E)-2-(N-phenylacetamido)ethenyl]cyclohex-2-en-1-ylidene]prop-1-en-1-yl]-3-ethyl-1,3-benzothiazol-3-ium iodide] |  | No | No | 125 µM | 52.7 µM |  |  | 
Cc1cc(C2(c3ccc(O)c(C)c3)C(=O)N(Cc3ccccc3)c3ccccc32)ccc1O [Compound 5142587, 1-benzyl-3,3-bis(4-hydroxy-3-methylphenyl)-2,3-dihydro-1H-indol-2-one] |  | No | No | 15,625 µM | 4.4 µM |  |  | 
HNP-1 R24A: single alanine mutant of HNP-1, Arg24 replaced by alanine |  |  |  |  |  |  |  | maintained significant binding
